Results published in patent US6719996B2, “Galenic composition for low bioavailability medicaments” (Hoffmann-La Roche Inc., priority 2000, dated 2004).

Experiment: Solubility in cocoa butter/lecithin mixtures
Format: physicochemical
Conditions: oil or lipid

With `Cc1ccccc1-c1cc(N2CCOCC2)ncc1N(C)C(=O)C(C)(C)c1cc(C(F)(F)F)cc(C(F)(F)F)c1` [2-(3,5-bis-trifluoromethyl-phenyl)-N-methyl-N-(6-morpholin-4-yl-4-o-tolyl-pyridin-3-yl)-isobutyramide] the solubility was < 15 mg/mL.
